Measurements reported in ChEMBL document CHEMBL1909046, “DrugMatrix in vitro pharmacology data”.

Tests used:
[1] = molecular target: T1, Muscarinic acetylcholine receptor M5 (Homo sapiens, UniProt P08912); format: cell membranes, CHO-K1, Membrane; conditions: cho-k1; further: in other assays of this panel Not Active means under 50% inhibition at 10 µM
T1 sequence (P08912 whole entry): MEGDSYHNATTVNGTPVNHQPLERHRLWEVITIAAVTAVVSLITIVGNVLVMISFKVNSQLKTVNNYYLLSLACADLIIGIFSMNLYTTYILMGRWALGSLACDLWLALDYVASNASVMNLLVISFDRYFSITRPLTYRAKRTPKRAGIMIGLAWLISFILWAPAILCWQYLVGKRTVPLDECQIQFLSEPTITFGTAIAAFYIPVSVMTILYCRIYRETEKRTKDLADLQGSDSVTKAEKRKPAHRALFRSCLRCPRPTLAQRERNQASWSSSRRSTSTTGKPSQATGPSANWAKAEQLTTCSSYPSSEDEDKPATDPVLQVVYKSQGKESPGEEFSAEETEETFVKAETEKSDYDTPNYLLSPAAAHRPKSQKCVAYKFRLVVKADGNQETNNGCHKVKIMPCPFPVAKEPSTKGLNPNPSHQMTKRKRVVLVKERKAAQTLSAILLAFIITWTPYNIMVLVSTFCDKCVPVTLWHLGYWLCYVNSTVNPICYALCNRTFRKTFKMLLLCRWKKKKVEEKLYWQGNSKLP

[2] = DRUGMATRIX: Serotonin (5-Hydroxytryptamine) 5-HT3 radioligand binding (ligand: [3H] GR-65630); format: cell membranes, Membrane; conditions: hek293; Not Active = under 50% inhibition at 10 µM
[3] = molecular target: Adenosine receptor A2a (Homo sapiens, UniProt P29274); test: DRUGMATRIX: Adenosine A2A radioligand binding (ligand: […]); format: cell membranes, HEK293, Membrane; conditions: hek293; Not Active = under 50% inhibition at 10 µM
Adenosine receptor A2a, sequence (P29274 whole entry): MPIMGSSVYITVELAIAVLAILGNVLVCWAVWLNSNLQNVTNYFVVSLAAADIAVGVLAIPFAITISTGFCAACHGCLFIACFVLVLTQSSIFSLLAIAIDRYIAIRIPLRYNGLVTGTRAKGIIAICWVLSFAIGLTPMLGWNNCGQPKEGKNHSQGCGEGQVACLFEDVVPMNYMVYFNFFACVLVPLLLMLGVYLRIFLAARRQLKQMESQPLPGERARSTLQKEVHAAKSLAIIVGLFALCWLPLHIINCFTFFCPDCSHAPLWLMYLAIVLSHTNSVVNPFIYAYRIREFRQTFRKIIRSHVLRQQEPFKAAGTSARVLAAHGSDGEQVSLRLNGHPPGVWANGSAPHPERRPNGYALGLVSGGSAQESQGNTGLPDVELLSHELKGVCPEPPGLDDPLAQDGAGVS

[4] = DRUGMATRIX: Interleukin IL-1 radioligand binding (ligand: [125I] interleukin 1beta); format: cell membranes, Membrane; conditions: nih3t3; Not Active = under 50% inhibition at 10 µM
[5] = DRUGMATRIX: Purinergic P2X radioligand binding (ligand: [3H] alpha, beta-Methylene-ATP); format: cell membranes, Oryctolagus cuniculus, New Zealand albino, Urinary bladder, Membrane; conditions: Not Active = under 50% inhibition at 10 µM
[6] = DRUGMATRIX: GABAA, Chloride Channel, TBOB radioligand binding (ligand: [3H] TBOB); format: cell membranes, Rattus norvegicus, Wistar, Cerebral cortex, Membrane; conditions: Not Active = under 50% inhibition at 10 µM
[7] = DRUGMATRIX: Nicotinic Acetylcholine radioligand binding (ligand: [125I] Epibatidine); format: cell membranes, Membrane; conditions: imr-32; Not Active = under 50% inhibition at 10 µM

CC1=C(C(=O)O)N2C(=O)[C@@H](NC(=O)[C@H](N)c3ccccc3)[C@H]2SC1 [CEPHALEXIN ANHYDROUS]
Not Active: IC50 [1] | IC50 [2] | Ki [2] | IC50 [3] | IC50 [4] | Ki [4] | IC50 [5] | Ki [5] | IC50 [6] | Ki [6] | IC50 [7] | Ki [7]

O=C(N[C@H](CO)[C@H](O)c1ccc([N+](=O)[O-])cc1)C(Cl)Cl [CHLORAMPHENICOL]
Not Active: IC50 [1] | IC50 [2] | Ki [2] | IC50 [3] | IC50 [4] | Ki [4] | IC50 [5] | Ki [5] | IC50 [6] | Ki [6] | IC50 [7] | Ki [7]

ClC(Cl)Cl [CHLOROFORM]
Not Active: IC50 [1] | IC50 [2] | Ki [2] | IC50 [3] | IC50 [4] | Ki [4] | IC50 [5] | Ki [5] | IC50 [6] | Ki [6] | IC50 [7] | Ki [7]

C=C1CC[C@H](O)C/C1=C/C=C1\CCC[C@]2(C)[C@@H]([C@H](C)CCCC(C)C)CC[C@@H]12 [CHOLECALCIFEROL]
Not Active: IC50 [1] | IC50 [2] | Ki [2] | IC50 [3] | IC50 [4] | Ki [4] | IC50 [5] | Ki [5] | IC50 [6] | Ki [6] | IC50 [7] | Ki [7]

C[N+](C)(C)CCO.[Cl-] [CHOLINE CHLORIDE]
Not Active: IC50 [1] | IC50 [2] | Ki [2] | IC50 [3] | IC50 [4] | Ki [4] | IC50 [5] | Ki [5] | IC50 [6] | Ki [6] | IC50 [7] | Ki [7]

CCOC(=O)C(C)(C)Oc1ccc(Cl)cc1 [CLOFIBRATE]
Not Active: IC50 [1] | IC50 [2] | Ki [2] | IC50 [3] | IC50 [4] | Ki [4] | IC50 [5] | Ki [5] | IC50 [6] | Ki [6] | IC50 [7] | Ki [7]

CC(=O)OCC(=O)[C@@]1(O)CC[C@H]2[C@@H]3CCC4=CC(=O)CC[C@]4(C)[C@H]3C(=O)C[C@@]21C [CORTISONE ACETATE]
Not Active: IC50 [1] | IC50 [2] | Ki [2] | IC50 [3] | IC50 [4] | Ki [4] | IC50 [5] | Ki [5] | IC50 [6] | Ki [6] | IC50 [7] | Ki [7]

O=c1ccc2ccccc2o1 [COUMARIN]
Not Active: IC50 [1] | IC50 [2] | Ki [2] | IC50 [3] | IC50 [4] | Ki [4] | IC50 [5] | Ki [5] | IC50 [6] | Ki [6] | IC50 [7] | Ki [7]

C[C@@H]1C[C@@H]([C@H](O)CC2CC(=O)NC(=O)C2)C(=O)[C@@H](C)C1 [CYCLOHEXIMIDE]
Not Active: IC50 [1] | IC50 [2] | Ki [2] | IC50 [3] | IC50 [4] | Ki [4] | IC50 [5] | Ki [5] | IC50 [6] | Ki [6] | IC50 [7] | Ki [7]

CN(C)/N=N/c1[nH]cnc1C(N)=O [DACARBAZINE]
Not Active: IC50 [1] | IC50 [2] | Ki [2] | IC50 [3] | IC50 [4] | Ki [4] | IC50 [5] | Ki [5] | IC50 [6] | Ki [6] | IC50 [7] | Ki [7]

COc1ccc2c(c1)[C@]13CCCC[C@@H]1[C@H](C2)N(C)CC3 [DEXTROMETHORPHAN]
Not Active: IC50 [1] | IC50 [2] | Ki [2] | IC50 [3] | IC50 [4] | Ki [4] | IC50 [5] | Ki [5] | IC50 [6] | Ki [6] | IC50 [7] | Ki [7]

CC(=O)Nc1c(I)c(NC(C)=O)c(I)c(C(=O)O)c1I [DIATRIZOIC ACID]
Not Active: IC50 [1] | IC50 [2] | Ki [2] | IC50 [3] | IC50 [4] | Ki [4] | IC50 [5] | Ki [5] | IC50 [6] | Ki [6] | IC50 [7] | Ki [7]

COP(=O)(OC)OC=C(Cl)Cl [DICHLORVOS]
Not Active: IC50 [1] | IC50 [2] | Ki [2] | IC50 [3] | IC50 [4] | Ki [4] | IC50 [5] | Ki [5] | IC50 [6] | Ki [6] | IC50 [7] | Ki [7]

O=C(O)Cc1ccccc1Nc1c(Cl)cccc1Cl [DICLOFENAC]
Not Active: IC50 [1] | IC50 [2] | Ki [2] | IC50 [3] | IC50 [4] | Ki [4] | IC50 [5] | Ki [5] | IC50 [6] | Ki [6] | IC50 [7] | Ki [7]

C[C@H]1O[C@@H](O[C@H]2[C@@H](O)C[C@H](O[C@H]3[C@@H](O)C[C@H](O[C@H]4CC[C@@]5(C)[C@H](CC[C@@H]6[C@@H]5CC[C@]5(C)[C@@H](C7=CC(=O)OC7)CC[C@]65O)C4)O[C@@H]3C)O[C@@H]2C)C[C@H](O)[C@@H]1O [DIGITOXIN]
Not Active: IC50 [1] | IC50 [2] | Ki [2] | IC50 [3] | IC50 [4] | Ki [4] | IC50 [5] | Ki [5] | IC50 [6] | Ki [6] | IC50 [7] | Ki [7]

CCN1CC(CCN2CCOCC2)C(c2ccccc2)(c2ccccc2)C1=O (centres undefined) [DOXAPRAM]
Not Active: IC50 [1] | IC50 [2] | Ki [2] | IC50 [3] | IC50 [4] | Ki [4] | IC50 [5] | Ki [5] | IC50 [6] | Ki [6] | IC50 [7] | Ki [7]

Cn1c(=O)c2c(ncn2CC2OCCO2)n(C)c1=O [DOXOFYLLINE]
Not Active: IC50 [1] | IC50 [2] | Ki [2] | IC50 [3] | IC50 [4] | Ki [4] | IC50 [5] | Ki [5] | IC50 [6] | Ki [6] | IC50 [7] | Ki [7]

COc1cccc2c1C(=O)c1c(O)c3c(c(O)c1C2=O)C[C@@](O)(C(=O)CO)C[C@@H]3O[C@H]1C[C@H](N)[C@H](O)[C@H](C)O1 [DOXORUBICIN]
Not Active: IC50 [1] | IC50 [2] | Ki [2] | IC50 [3] | IC50 [4] | Ki [4] | IC50 [5] | Ki [5] | IC50 [6] | Ki [6] | IC50 [7] | Ki [7]

COc1cccc2c1C(=O)c1c(O)c3c(c(O)c1C2=O)C[C@@](O)(C(=O)CO)C[C@@H]3O[C@H]1C[C@H](N)[C@@H](O)[C@H](C)O1 [EPIRUBICIN]
Not Active: IC50 [1] | IC50 [2] | Ki [2] | IC50 [3] | IC50 [4] | Ki [4] | IC50 [5] | Ki [5] | IC50 [6] | Ki [6] | IC50 [7] | Ki [7]

C[C@]12CC[C@@H]3c4ccc(OC(=O)c5ccccc5)cc4CC[C@H]3[C@@H]1CC[C@@H]2O [ESTRADIOL BENZOATE]
Not Active: IC50 [1] | IC50 [2] | Ki [2] | IC50 [3] | IC50 [4] | Ki [4] | IC50 [5] | Ki [5] | IC50 [6] | Ki [6] | IC50 [7] | Ki [7]

C[C@]12CC[C@@H]3c4ccc(O)cc4CC[C@H]3[C@@H]1CC[C@@H]2O [ESTRADIOL]
Not Active: IC50 [1] | IC50 [2] | Ki [2] | IC50 [3] | IC50 [4] | Ki [4] | IC50 [5] | Ki [5] | IC50 [6] | Ki [6] | IC50 [7] | Ki [7]

CC[C@@H](CO)NCCN[C@@H](CC)CO [ETHAMBUTOL]
Not Active: IC50 [1] | IC50 [2] | Ki [2] | IC50 [3] | IC50 [4] | Ki [4] | IC50 [5] | Ki [5] | IC50 [6] | Ki [6] | IC50 [7] | Ki [7]
